Source: PubChem BioAssay AID2060609 (Molecular Pharmacology Branch, DTP, NCI, 2025)
Values joined by “and” are separate entries in the source; they are usually repeats but may differ in a detail not shown here. Identical values can stand only once.

Test system: 855422-203-R-J1-PDC complex spheroids, viability
Experiment: Anticancer human tumor 855422-203-R-J1-PDC patient-derived bladder carcinoma cell line growth inhibition [CLK]
Conditions: for viability, T/C: stronger effect = lower value
Outline: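 Patient-derived tumor cells grown as complex spheroids with HUVEC endothelial cells and mesenchymal stem cells, treated with drug combinations. Concentrations descend in half-log steps from near clinical Cmax, or from 10 microM if Cmax unknown.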

[1] = curve of first compound, second compound 0.0316 µM
[2] = curve of first compound, second compound 0.1 µM
[3] = curve of first compound, second compound 0.316 µM
[4] = curve of first compound, second compound 1 µM
[5] = curve of first compound, second compound 3.16 µM
[6] = curve of first compound, second compound 10 µM
[7] = second compound 0.0316 µM, first compound 0.0316 µM
[8] = second compound 0.0316 µM, first compound 0.1 µM
[9] = second compound 0.0316 µM, first compound 0.316 µM
[10] = second compound 0.0316 µM, first compound 1 µM
[11] = second compound 0.0316 µM, first compound 3.16 µM
[12] = second compound 0.0316 µM, first compound 10 µM
[13] = second compound 0.1 µM, first compound 0.0316 µM
[14] = second compound 0.1 µM, first compound 0.1 µM
[15] = second compound 0.1 µM, first compound 0.316 µM
[16] = second compound 0.1 µM, first compound 1 µM
[17] = second compound 0.1 µM, first compound 3.16 µM
[18] = second compound 0.1 µM, first compound 10 µM
[19] = second compound 0.316 µM, first compound 0.0316 µM
[20] = second compound 0.316 µM, first compound 0.1 µM
[21] = second compound 0.316 µM, first compound 0.316 µM
[22] = second compound 0.316 µM, first compound 1 µM
[23] = second compound 0.316 µM, first compound 3.16 µM
[24] = second compound 0.316 µM, first compound 10 µM
[25] = second compound 1 µM, first compound 0.0316 µM
[26] = second compound 1 µM, first compound 0.1 µM
[27] = second compound 1 µM, first compound 0.316 µM
[28] = second compound 1 µM, first compound 1 µM
[29] = second compound 1 µM, first compound 3.16 µM
[30] = second compound 1 µM, first compound 10 µM
[31] = second compound 3.16 µM, first compound 0.0316 µM
[32] = second compound 3.16 µM, first compound 0.1 µM
[33] = second compound 3.16 µM, first compound 0.316 µM
[34] = second compound 3.16 µM, first compound 1 µM
[35] = second compound 3.16 µM, first compound 3.16 µM
[36] = second compound 3.16 µM, first compound 10 µM
[37] = second compound 10 µM, first compound 0.0316 µM
[38] = second compound 10 µM, first compound 0.1 µM
[39] = second compound 10 µM, first compound 0.316 µM
[40] = second compound 10 µM, first compound 1 µM
[41] = second compound 10 µM, first compound 3.16 µM
[42] = second compound 10 µM, first compound 10 µM
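Note: spheroids exposed to drugs for seven days before readout.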
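Throughout, for viability, T/C: 100% = DMSO vehicle control wells.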

COC1C=CCC(C)C(C)S(=O)(=O)NC(=O)c2ccc3c(c2)N(CC2CCC21)CC1(CCCc2cc(Cl)ccc21)CO3 (stereo not drawn) + CNC(=O)c1ccc(Nc2nc(OC3CCCC3)c3c(-c4ccc5nc(C)oc5c4)c[nH]c3n2)c(OC)c1
IC50 [1]: 7390 nM | IC50 [2]: > 10000 nM | IC50 [3]: < 31.6 nM | IC50 [4]: < 31.6 nM | IC50 [5]: < 31.6 nM | IC50 [6]: < 31.6 nM | viability, T/C [7]: 96% | viability, T/C [8]: 105% | viability, T/C [9]: 122% | viability, T/C [10]: 132% | viability, T/C [11]: 151% | viability, T/C [12]: 24.7% | viability, T/C [13]: 53.6% | viability, T/C [14]: 63.6% | viability, T/C [15]: 54.1% | viability, T/C [16]: 77.3% | viability, T/C [17]: 105% | viability, T/C [18]: 33.3% | viability, T/C [19]: 20% | viability, T/C [20]: 23.7% | viability, T/C [21]: 20.7% | viability, T/C [22]: 17.2% | viability, T/C [23]: 34.1% | viability, T/C [24]: 22% | viability, T/C [25]: 19.8% | viability, T/C [26]: 17.3% | viability, T/C [27]: 18.2% | viability, T/C [28]: 19.5% | viability, T/C [29]: 21.9% | viability, T/C [30]: 29% | viability, T/C [31]: 15.8% | viability, T/C [32]: 18.1% | viability, T/C [33]: 16.4% | viability, T/C [34]: 15.1% | viability, T/C [35]: 20.8% | viability, T/C [36]: 23.3% | viability, T/C [37]: 17.7% | viability, T/C [38]: 18.6% | viability, T/C [39]: 17.9% | viability, T/C [40]: 17.4% | viability, T/C [41]: 17.9% | viability, T/C [42]: 23.3%

CC(C)CC(NC(=O)C(Cc1ccccc1)NC(=O)c1cnccn1)B(O)O (stereo not drawn)
viability, T/C (compound 0.000949 µM): 2.8% and 2.47% | viability, T/C (compound 0.003 µM): 0.77% and 0.18% | viability, T/C (compound 0.00949 µM): 0.19% and 0.16% | viability, T/C (compound 0.03 µM): 0.36% and 0.17% | viability, T/C (compound 0.0949 µM): 0.46% and 0.15% | viability, T/C (compound 0.3 µM): 0.24% and 0.15% | IC50 (curve of compound): < 0.949 nM

CC(=O)O[C@H]1C(=O)[C@@]2(C)[C@H]([C@H](OC(=O)c3ccccc3)[C@]3(O)C[C@H](OC(=O)[C@H](O)[C@@H](NC(=O)c4ccccc4)c4ccccc4)C(C)=C1C3(C)C)[C@]1(OC(C)=O)CO[C@@H]1C[C@@H]2O + CN1CCN(c2cc(C(=O)Nc3cc4cc(-c5cnn(C)c5)ccc4cn3)ccn2)CC1
IC50 [1]: < 31.6 nM | IC50 [2]: < 31.6 nM | IC50 [3]: < 31.6 nM | IC50 [4]: < 31.6 nM | IC50 [5]: < 31.6 nM | IC50 [6]: < 31.6 nM | viability, T/C [7]: 8.75% | viability, T/C [8]: 7.02% | viability, T/C [9]: 5.26% | viability, T/C [10]: 9.34% | viability, T/C [11]: 9.46% | viability, T/C [12]: 10.8% | viability, T/C [13]: 8.5% | viability, T/C [14]: 7.8% | viability, T/C [15]: 6.23% | viability, T/C [16]: 6.41% | viability, T/C [17]: 8.14% | viability, T/C [18]: 8.37% | viability, T/C [19]: 4.94% | viability, T/C [20]: 5.41% | viability, T/C [21]: 5.22% | viability, T/C [22]: 4.69% | viability, T/C [23]: 4.5% | viability, T/C [24]: 5.61% | viability, T/C [25]: 0.21% | viability, T/C [26]: 0.19% | viability, T/C [27]: 0.18% | viability, T/C [28]: 1.39% | viability, T/C [29]: 1.11% | viability, T/C [30]: 0.14% | viability, T/C [31]: 0.45% | viability, T/C [32]: 0.41% | viability, T/C [33]: 0.38% | viability, T/C [34]: 0.39% | viability, T/C [35]: 0.32% | viability, T/C [36]: 0.37% | viability, T/C [37]: 1.12% | viability, T/C [38]: 0.73% | viability, T/C [39]: 0.33% | viability, T/C [40]: 1.28% | viability, T/C [41]: 0.43% | viability, T/C [42]: 2.45%

C#Cc1c(F)ccc2cc(O)cc(-c3ncc4c(N5CC6CCC(C5)N6)nc(OCC56CCCN5CC(F)C6)nc4c3F)c12 (stereo not drawn) + CNC(=O)c1ccc(Nc2nc(OC3CCCC3)c3c(-c4ccc5nc(C)oc5c4)c[nH]c3n2)c(OC)c1
IC50 [1]: > 10000 nM | IC50 [2]: 392 nM | IC50 [3]: < 31.6 nM | IC50 [4]: < 31.6 nM | IC50 [5]: < 31.6 nM | IC50 [6]: < 31.6 nM | viability, T/C [7]: 95.4% | viability, T/C [8]: 111% | viability, T/C [9]: 100% | viability, T/C [10]: 87.2% | viability, T/C [11]: 132% | viability, T/C [12]: 84.9% | viability, T/C [13]: 60.2% | viability, T/C [14]: 51.1% | viability, T/C [15]: 56.7% | viability, T/C [16]: 39.6% | viability, T/C [17]: 32.7% | viability, T/C [18]: 22% | viability, T/C [19]: 21.2% | viability, T/C [20]: 24.9% | viability, T/C [21]: 24.8% | viability, T/C [22]: 22.9% | viability, T/C [23]: 24.3% | viability, T/C [24]: 21.8% | viability, T/C [25]: 19.8% | viability, T/C [26]: 21.5% | viability, T/C [27]: 19.5% | viability, T/C [28]: 22.1% | viability, T/C [29]: 23.2% | viability, T/C [30]: 19.3% | viability, T/C [31]: 20.6% | viability, T/C [32]: 18.1% | viability, T/C [33]: 17.3% | viability, T/C [34]: 22% | viability, T/C [35]: 25.4% | viability, T/C [36]: 13.3% | viability, T/C [37]: 21.8% | viability, T/C [38]: 22.4% | viability, T/C [39]: 24.1% | viability, T/C [40]: 18.9% | viability, T/C [41]: 17.3% | viability, T/C [42]: 14.8%
